This note sets out measurements from patent US8853125B2, “Pyrazole compounds for controlling invertebrate pests” (BASF SE, priority 2008, dated 2014).

What all share (type): in vivo
Experiment [1] concerns Vetch Aphid (Megoura viciae). As to the kind of experiment: Vetch aphid, bean leaf disks in microtiterplates. Particulars: foliar, 144 h. As for the experimental part:
The active compounds were formulated in 1:3 (vol:vol) DMSO:water with different concentrations of formulated compounds.
Bean leaf disks were placed into microtiterplates filled with 0.8% agar-agar and 2.5 ppm OPUS™. The leaf disks were sprayed with 2.5 μl of the test solution and 5 to 8 adult aphids were placed into the microtiterplates which were then closed and kept at 23±1° C. and 50±5% relative humidity under fluorescent light for 6 days. Mortality was assessed on the basis of vital, reproduced aphids. Aphid mortality and fecundity was then visually assessed.

The test system of experiment [2] is Cowpea Aphid (aphis craccivora). As to the kind of experiment: Cowpea aphid, sprayed potted cowpea plants. Particulars: read-out: mortality in comparison with untreated controls. As for the experimental part:
The active compounds were formulated in 50:50 (vol:vol) acetone:water. The test solution was prepared at the day of use.
Potted cowpea plants colonized with 100-150 aphids of various stages were sprayed after the pest population had been recorded. Population reduction was assessed after 24, 72, and 120 hours.

Experiment [3] has as its system Green Peach Aphid (Myzus persicae, Mixed Life Stages). The experiment is described as follows: Green peach aphid, method a (leaf dip, pepper plants). The conditions noted are these: foliar, 120 h, read-out: mortality in comparison with untreated controls. The text has this: (§1) The active compounds were formulated in 50:50 (vol:vol) acetone:water and 100 ppm Kinetica™ surfactant.
Pepper plants in the 2nd leaf-pair stage (variety ‘California Wonder’) were infested with approximately 40 laboratory-reared aphids by placing infested leaf sections on top of the test plants. The leaf sections were removed after 24 hr. The leaves of the intact plants were dipped into gradient solutions of the test compound and allowed to dry. Test plants were maintained under fluorescent light (24 hour photoperiod) at about 25° C. and 20-40% relative humidity. Aphid mortality on the treated plants, relative to mortality on check plants, was determined after 5 days.

Experiment [4] relates to Cotton Aphid (aphis gossypii, Mixed Life Stages). The experiment is described as follows: Cotton aphid, method a (cotyledon dip). The conditions noted are these: 120 h, read-out: mortality in comparison with untreated controls.
Text: as §1
Cotton plants at the cotyledon stage (one plant per pot) were infested by placing a heavily infested leaf from the main colony on top of each cotyledon. The aphids were allowed to transfer to the host plant overnight, and the leaf used to transfer the aphids was removed. The cotyledons were dipped in the test solution and allowed to dry. After 5 days, mortality counts were made.

With `CN1CCn2ncc(C(=O)Nc3cccnc3)c2C1` [Compound 13, N-(pyridine-3-yl)-5-methyl-4,5,6,7-tetrahydropyrazolo-[1,5-a]pyrazine-3-carboxamide], the mortality at 2500 µg/mL in experiment [1] was at least 90%. Besides, the mortality at 300 ppm in experiment [2], in experiment [3] and in experiment [4] was at least 75% in each case.
